# Test system: soybean (Glycine max Merr.): GLXMA
# Assay: Test Example 1 pre-emergence herbicidal activity, GLXMA
# Assay type: in vivo
# Details: Rate 63 g a.i./ha, visually observed 20th to 23rd day after application
# In short: (§1)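 Scoring was visual growth control (0 = untreated, 100 = complete kill) on days 20–23 post-application. Treatment came as a pre-emergence spray one day after sowing in upland soil, using wettable powder or emulsifiable concentrate diluted in 500 L/ha water at predetermined active-ingredient amounts.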
row,Structure (SMILES),Pre-emergence Herbicidal Activity GLXMA (growth controlling degree)
1,CNc1c(OC)c(Cl)cc(F)c1-c1nn(C)c(OC(F)F)c1Cl [Compound 1-58],20%
2,COc1c(Cl)cc(F)c(-c2nn(C)c(OC(F)F)c2Cl)c1NC(C)C [Compound 1-59],30%
3,COc1c(Cl)cc(F)c(-c2nn(C)c(OC(F)F)c2Cl)c1NC1CCCC1 [Compound 1-60],0%

# Test system: green foxtail (Setaria viridis L.): SETVI
# Assay: Test Example 1 pre-emergence herbicidal activity, SETVI
# Assay type: in vivo
# Details: Rate 63 g a.i./ha, visually observed 20th to 23rd day after application
# In short: as §1
row,Structure (SMILES),Pre-emergence Herbicidal Activity SETVI (growth controlling degree)
1,CNc1c(OC)c(Cl)cc(F)c1-c1nn(C)c(OC(F)F)c1Cl [Compound 1-58],100%
2,COc1c(Cl)cc(F)c(-c2nn(C)c(OC(F)F)c2Cl)c1NC(C)C [Compound 1-59],100%
3,COc1c(Cl)cc(F)c(-c2nn(C)c(OC(F)F)c2Cl)c1NC1CCCC1 [Compound 1-60],30%

# Test system: crabgrass (Digitaria sanguinalis L.): DIGSA
# Assay: Test Example 1 pre-emergence herbicidal activity, DIGSA
# Assay type: in vivo
# Details: Rate 63 g a.i./ha, visually observed 20th to 23rd day after application
# In short: as §1
row,Structure (SMILES),Pre-emergence Herbicidal Activity DIGSP (growth controlling degree)
1,CNc1c(OC)c(Cl)cc(F)c1-c1nn(C)c(OC(F)F)c1Cl [Compound 1-58],100%
2,COc1c(Cl)cc(F)c(-c2nn(C)c(OC(F)F)c2Cl)c1NC(C)C [Compound 1-59],100%
3,COc1c(Cl)cc(F)c(-c2nn(C)c(OC(F)F)c2Cl)c1NC1CCCC1 [Compound 1-60],10%

# Test system: barnyardgrass (Echinochloa crus-galli L.): ECHCG
# Assay: Test Example 1 pre-emergence herbicidal activity, ECHCG
# Assay type: in vivo
# Details: Rate 63 g a.i./ha, visually observed 20th to 23rd day after application
# In short: as §1
row,Structure (SMILES),Pre-emergence Herbicidal Activity ECHCG (growth controlling degree)
1,CNc1c(OC)c(Cl)cc(F)c1-c1nn(C)c(OC(F)F)c1Cl [Compound 1-58],100%
2,COc1c(Cl)cc(F)c(-c2nn(C)c(OC(F)F)c2Cl)c1NC(C)C [Compound 1-59],60%
3,COc1c(Cl)cc(F)c(-c2nn(C)c(OC(F)F)c2Cl)c1NC1CCCC1 [Compound 1-60],0%

# Test system: velvetleaf (Abutilon theophrasti), ABUTH
# Assay: Test Example 2 post-emergence (foliage treatment) herbicidal activity, ABUTH
# Assay type: in vivo
# Details: 63 g a.i./ha
# In short: (§2)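 A small sprayer delivered the diluted WP or EC formulation (500 L/ha water, 0.1% v/v spreader) over emerged seedlings in upland soil pots. Damage relative to untreated plants was graded visually from 0 to 100% three weeks or so later (days 20-23).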
row,Structure (SMILES),"growth controlling degree, ABUTH"
1,CNc1c(OC)c(Cl)cc(F)c1-c1nn(C)c(OC(F)F)c1Cl [Compound 1-58],100%
2,COc1c(Cl)cc(F)c(-c2nn(C)c(OC(F)F)c2Cl)c1NC(C)C [Compound 1-59],100%
3,COc1c(Cl)cc(F)c(-c2nn(C)c(OC(F)F)c2Cl)c1NC1CCCC1 [Compound 1-60],100%

# Test system: rice (Oryza sativa L.): ORYSA
# Assay: Test Example 1 pre-emergence herbicidal activity, ORYSA
# Assay type: in vivo
# Details: Rate 63 g a.i./ha, visually observed 20th to 23rd day after application
# In short: as §1
row,Structure (SMILES),Pre-emergence Herbicidal Activity ORYSA (growth controlling degree)
1,CNc1c(OC)c(Cl)cc(F)c1-c1nn(C)c(OC(F)F)c1Cl [Compound 1-58],60%
2,COc1c(Cl)cc(F)c(-c2nn(C)c(OC(F)F)c2Cl)c1NC(C)C [Compound 1-59],50%
3,COc1c(Cl)cc(F)c(-c2nn(C)c(OC(F)F)c2Cl)c1NC1CCCC1 [Compound 1-60],0%

# Test system: redroot pigweed (Amaranthus retroflexus L.), AMARE
# Assay: Test Example 2 post-emergence (foliage treatment) herbicidal activity, AMARE
# Assay type: in vivo
# Details: 63 g a.i./ha
# In short: (§3)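 Visual rating of growth control, from 0 (untreated-like) to 100 (complete kill), was done 20–23 days after post-emergence spraying. Wettable powder or emulsifiable concentrate was diluted to 500 L/ha with 0.1% (v/v) spreader. Leaf stages at application were 1.1-2.1 (ECHCG), 1.0-2.0 (DIGSA), 0.1-1.5 (AMARE) and 1.0-2 (ORYSA).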
row,Structure (SMILES),"growth controlling degree, AMARE"
1,CNc1c(OC)c(Cl)cc(F)c1-c1nn(C)c(OC(F)F)c1Cl [Compound 1-58],100%
2,COc1c(Cl)cc(F)c(-c2nn(C)c(OC(F)F)c2Cl)c1NC(C)C [Compound 1-59],100%
3,COc1c(Cl)cc(F)c(-c2nn(C)c(OC(F)F)c2Cl)c1NC1CCCC1 [Compound 1-60],100%

# Test system: corn (Zea mays L.), ZEAMX
# Assay: Test Example 2 post-emergence (foliage treatment) herbicidal activity, ZEAMX
# Assay type: in vivo
# Details: 63 g a.i./ha
# In short: as §2
row,Structure (SMILES),"growth controlling degree, ZEAMX"
1,CNc1c(OC)c(Cl)cc(F)c1-c1nn(C)c(OC(F)F)c1Cl [Compound 1-58],100%
2,COc1c(Cl)cc(F)c(-c2nn(C)c(OC(F)F)c2Cl)c1NC(C)C [Compound 1-59],80%
3,COc1c(Cl)cc(F)c(-c2nn(C)c(OC(F)F)c2Cl)c1NC1CCCC1 [Compound 1-60],50%

# Test system: prickly sida (Sida spinosa L.): SEDSP
# Assay: Test Example 1 pre-emergence herbicidal activity, SIDSP
# Assay type: in vivo
# Details: Rate 63 g a.i./ha, visually observed 20th to 23rd day after application
# In short: as §1
row,Structure (SMILES),Pre-emergence Herbicidal Activity SIDSP (growth controlling degree)
1,CNc1c(OC)c(Cl)cc(F)c1-c1nn(C)c(OC(F)F)c1Cl [Compound 1-58],100%
2,COc1c(Cl)cc(F)c(-c2nn(C)c(OC(F)F)c2Cl)c1NC(C)C [Compound 1-59],100%
3,COc1c(Cl)cc(F)c(-c2nn(C)c(OC(F)F)c2Cl)c1NC1CCCC1 [Compound 1-60],0%

# Test system: crabgrass (Digitaria sanguinalis L.), DIGSA
# Assay: Test Example 2 post-emergence (foliage treatment) herbicidal activity, DIGSA
# Assay type: in vivo
# Details: 63 g a.i./ha
# In short: as §3
row,Structure (SMILES),"growth controlling degree, DIGSP"
1,CNc1c(OC)c(Cl)cc(F)c1-c1nn(C)c(OC(F)F)c1Cl [Compound 1-58],100%
2,COc1c(Cl)cc(F)c(-c2nn(C)c(OC(F)F)c2Cl)c1NC(C)C [Compound 1-59],98%
3,COc1c(Cl)cc(F)c(-c2nn(C)c(OC(F)F)c2Cl)c1NC1CCCC1 [Compound 1-60],80%

# Test system: barnyardgrass (Echinochloa crus-galli L.), ECHCG
# Assay: Test Example 2 post-emergence (foliage treatment) herbicidal activity, ECHCG
# Assay type: in vivo
# Details: 63 g a.i./ha
# In short: as §3
row,Structure (SMILES),"growth controlling degree, ECHCO"
1,CNc1c(OC)c(Cl)cc(F)c1-c1nn(C)c(OC(F)F)c1Cl [Compound 1-58],100%
2,COc1c(Cl)cc(F)c(-c2nn(C)c(OC(F)F)c2Cl)c1NC(C)C [Compound 1-59],100%
3,COc1c(Cl)cc(F)c(-c2nn(C)c(OC(F)F)c2Cl)c1NC1CCCC1 [Compound 1-60],100%

# Test system: green foxtail (Setaria viridis L.), SETVI
# Assay: Test Example 2 post-emergence (foliage treatment) herbicidal activity, SETVI
# Assay type: in vivo
# Details: 63 g a.i./ha
# In short: as §2
row,Structure (SMILES),"growth controlling degree, SETVI"
1,CNc1c(OC)c(Cl)cc(F)c1-c1nn(C)c(OC(F)F)c1Cl [Compound 1-58],100%
2,COc1c(Cl)cc(F)c(-c2nn(C)c(OC(F)F)c2Cl)c1NC(C)C [Compound 1-59],100%
3,COc1c(Cl)cc(F)c(-c2nn(C)c(OC(F)F)c2Cl)c1NC1CCCC1 [Compound 1-60],100%

# Test system: wheat (Triticum aestivum L.): TRZAX
# Assay: Test Example 1 pre-emergence herbicidal activity, TRZAX
# Assay type: in vivo
# Details: Rate 63 g a.i./ha, visually observed 20th to 23rd day after application
# In short: as §1
row,Structure (SMILES),Pre-emergence Herbicidal Activity TRZAX (growth controlling degree)
1,CNc1c(OC)c(Cl)cc(F)c1-c1nn(C)c(OC(F)F)c1Cl [Compound 1-58],10%
2,COc1c(Cl)cc(F)c(-c2nn(C)c(OC(F)F)c2Cl)c1NC(C)C [Compound 1-59],30%
3,COc1c(Cl)cc(F)c(-c2nn(C)c(OC(F)F)c2Cl)c1NC1CCCC1 [Compound 1-60],0%

# Test system: redroot pigweed (Amaranthus retroflexus L.): AMARE
# Assay: Test Example 1 pre-emergence herbicidal activity, AMARE
# Assay type: in vivo
# Details: Rate 63 g a.i./ha, visually observed 20th to 23rd day after application
# In short: as §1
row,Structure (SMILES),Pre-emergence Herbicidal Activity AMARE (growth controlling degree)
1,CNc1c(OC)c(Cl)cc(F)c1-c1nn(C)c(OC(F)F)c1Cl [Compound 1-58],100%
2,COc1c(Cl)cc(F)c(-c2nn(C)c(OC(F)F)c2Cl)c1NC(C)C [Compound 1-59],100%
3,COc1c(Cl)cc(F)c(-c2nn(C)c(OC(F)F)c2Cl)c1NC1CCCC1 [Compound 1-60],95%

# Test system: common cocklebur (Xanthium strumarium L.), XANST
# Assay: Test Example 2 post-emergence (foliage treatment) herbicidal activity, XANST
# Assay type: in vivo
# Details: 63 g a.i./ha
# Source text: Upland field soil was put into a 1/170,000 ha pot, and seeds of various plants were sown. Then, when the plants reached predetermined leaf stages {1. barnyardgrass (Echinochloa crus-galli L.), ECHCG: 1.1-2.1 leaf stage, 2. crabgrass (Digitaria sanguinalis L.), DIGSA: 1.0-2.0 leaf stage, 3. green foxtail (Setaria viridis L.), SETVI: 1.0-2.2 leaf stage, 4. redroot pigweed (Amaranthus retroflexus L.), AMARE: 0.1-1.5 leaf stage, 5. prickly sida (Sida spinosa L.), SIDSP: 0.1-0.6 leaf stage, 6. velvetleaf (Abutilon theophrasti), ABUTH: 0.1-0.6 leaf stage, 7. common cocklebur (Xanthium strumarium L.), XANST: 0.1 leaf stage, 8. rice (Oryza sativa L.), ORYSA; 1.0-2 leaf stage, 9. wheat (Triticum aestivum L.), TRZAX: 2.3-3.5 leaf stage, 10. corn (Zea mays L.), ZEAMXN 2.1-2.6 leaf stage, 11. soybean (Glycine max Merr.), GLXMA: primary leaf stage}, a wettable powder or emulsifiable concentrate having the compound of the present invention formulated in accordance with a usual formulation method, was weighed so that the active ingredient would be a predetermined amount, and diluted with water in an amount of 500 L/ha. To the diluted solution, 0.1% (v/v) of an agricultural spreader was added. The herbicide adjusted was applied by a small size sprayer for foliage treatment. On the 20th to 23rd day after the application of the herbicide, the growth of the respective plants was visually observed, and the herbicidal effects were evaluated by growth controlling degrees (%) ranging from 0 (equivalent to the untreated control) to 100 (complete kill), whereby the results shown in Table 5, were obtained. Compound Nos. in Table 5 correspond to Compound Nos. in Table 1 and 2 given hereinbefore.
row,Structure (SMILES),"growth controlling degree, XANST"
1,CNc1c(OC)c(Cl)cc(F)c1-c1nn(C)c(OC(F)F)c1Cl [Compound 1-58],100%
2,COc1c(Cl)cc(F)c(-c2nn(C)c(OC(F)F)c2Cl)c1NC(C)C [Compound 1-59],100%
3,COc1c(Cl)cc(F)c(-c2nn(C)c(OC(F)F)c2Cl)c1NC1CCCC1 [Compound 1-60],100%
